Our source for the EC50 values is patent US9834563B2 (Merck Sharp & Dohme Corp., priority 2013, dated 2017).

Each structure is given as a SMILES string.

The target of experiment [1] is T1, Human GPR40 (Homo sapiens, UniProt O14842). As to the kind of experiment: FLIPR assay: agonist-induced calcium mobilization in GPR40/CHO NFAT BLA cells. The class given is cell-based. Also noted: expressed in transfected cells; host or cells: CHO cells stably expressing NFAT BLA (beta-lactamase). The source says: (§1) Human and mouse GPR40 stable cell-lines were generated in CHO cells stably expressing NFAT BLA (Beta-lactamase). A human GPR40 stable cell-line was generated in HEK cells stably expressing the aequorin expressing reporter. The expression plasmids were transfected using lipofectamine, LIFE TECHNOLOGIES (Carlsbad, Calif.), following manufacturer's instructions. Stable cell-lines were generated following drug selection.
T1 sequence (O14842 whole entry): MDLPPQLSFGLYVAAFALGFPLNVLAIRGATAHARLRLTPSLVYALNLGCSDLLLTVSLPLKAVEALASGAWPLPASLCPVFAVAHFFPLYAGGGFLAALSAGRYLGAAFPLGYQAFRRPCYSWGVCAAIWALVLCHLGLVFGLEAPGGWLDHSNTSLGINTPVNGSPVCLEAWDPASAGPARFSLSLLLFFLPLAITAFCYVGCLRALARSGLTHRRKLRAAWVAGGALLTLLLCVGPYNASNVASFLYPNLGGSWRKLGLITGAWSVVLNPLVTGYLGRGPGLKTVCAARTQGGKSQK
FLIPR (Fluorimetric Imaging Plate Reader, Molecular Devices) assays were performed to measure agonist-induced calcium mobilization of the stable clones. For the FLIPR assay, one day before assay, GPR40/CHO NFAT BLA cells were seeded into black-wall-clear-bottom 384-well plates (Costar) at 1.4×10e4 cells/20 μL medium/well. The cells were incubated with 20 μl/well of the assay buffer (HBSS, 0.1% BSA, 20 mM HEPES, 2.5 mM probenecid, pH 7.4) containing 8 μM fluo-4, AM, 0.08% pluronic acid at room temperature for 100 minutes. Fluorescence output was measured using FLIPR. Compounds were dissolved in DMSO and diluted to desired concentrations with assay buffer. 13.3 μL/well of compound solution was added. The activities of the compounds in the examples have EC50 (effective concentration of compound to afford 50% of the maximum observed fluorescence) values listed in Table I.

The target in experiment [2] is T1, Human GPR40. As to the kind of experiment: Inositol phosphate turnover (IP1) assay in HEK cells stably expressing human GPR40. Type of experiment: cell-based. The settings on record: HEK cells stably expressing human GPR40, 3H-inositol labeling, 60 min compound incubation. Set-up: expressed in transfected cells. How it is done:
as §1
The assay is performed in a 96-well format. HEK cells stably expressing human GPR40 are plated to be 60-80% confluent within 72 h. After 72 h, the plates are aspirated and the cells washed with inositol-free DMEM (ICN). The wash media is replaced with 150 μL of 3H-inositol labeling media (inositol-free media containing 0.4% human albumin or 0.4% mouse albumin, 1× pen/strep antibiotics, glutamine, 25 mM HEPES to which is added 3H-myo-inositol NEN #NET114A 1 mCi/mL, 25 Ci/mmol diluted 1:150 in loading media with a final specific radioactivity of 1 μCi/150 μL). Alternatively, the human and mouse albumin can be added after the overnight labeling step before the addition of LiCl.
The assay is typically run the next day after 18 h labeling. On the day of the assay, 5 μL of 300 mM LiCl is added to all wells and incubated at 37 degrees for 20 min. 0.75 μL of 200× compounds are added and incubated with the cells for 60 min at 37 degrees. The media is then aspirated off and the assay terminated with the addition of 60 μL 10 mM formic acid. The cells are lysed for 60 min at room temperature. 15-30 μL of lysate is mixed with 70 μL/1 mg YSi SPA beads AMERSHAM (United Kingdom) in clear bottom Isoplates. The plates are shaken for 2 h at room temperature. Beads are allowed to settle and the plates are counted in the Wallac MICROBETA instrument. The activities of the compounds in the examples have EC50 (effective concentration of compound to afford 50% of the maximum observed […]) values listed in Table I.

As for `Cc1nc(OCCCS(C)(=O)=O)ccc1-c1ccc(F)c(COc2ccc3c(c2)C[C@H]2[C@H](C(=O)O)[C@@H]32)c1` [Example 1, (1S,1aS,6aR)-4-[(2-fluoro-5-{2-methyl-6-[3-(methylsulfonyl)propoxy]pyridin-3-yl}benyzyl)oxy]-1,1a,6,6a-tetrahydrocyclopropa[a]indene-1-carboxylic acid], the half-maximal effective concentration (EC50) on Human GPR40 [1] worked out at 46 nM; on Human GPR40 [2], 7.3 nM.

As for `Cc1nc(OC2CCS(=O)(=O)CC2)ccc1-c1ccc(F)c(COc2ccc3c(c2)C[C@H]2[C@H](C(=O)O)[C@@H]32)c1` [Example 2, (1S,1aS,6aR)-4-[(5-{6-[(1,1-dioxidotetrahydro-2H-thiopyran-4-yl)oxy]-2-methylpyridin-3-yl)-2-fluorobenzyl]oxy}-1,1a,6,6a-tetrahydrocyclopropa[a]indene-1-carboxylic acid], the results for the EC50 on Human GPR40 [1] and at Human GPR40 [2] were 70.2 nM and 18.5 nM, respectively.

Take `Cc1nc(N2CCC(S(C)(=O)=O)CC2)ccc1-c1cccc(COc2ccc3c(c2)C[C@H]2[C@H](C(=O)O)[C@@H]32)c1` [Example 3, (1S,1aS,6aR)-4-((3-(2-Methyl-6-(4-(methylsulfonyl)piperidin-1-yl)pyridin-3-yl)benzyl)oxy)-1,1a,6,6a-tetrahydrocyclopropa[a]indene-1-carboxylic acid]: the EC50 at Human GPR40 [1] came to 59.9 nM.

Take `Cc1cc(OCCCS(C)(=O)=O)nc(C)c1-c1cccc(COc2ccc3c(c2)C[C@H]2[C@H](C(=O)O)[C@@H]32)c1` [Example 4, (1S,1aS,6aR)-4-[(3-{2,4-dimethyl-6-[3-(methylsulfonyl)propoxy]pyridin-3-yl}benzyl)oxy]-1,1a,6,6a-tetrahydrocyclopropa[a]indene-1-carboxylic acid]: the EC50 at Human GPR40 [1] was 89.1 nM; at Human GPR40 [2] it was 15 nM.

In the case of `Cc1cc(OCCCS(C)(=O)=O)nc(C)c1-c1ccc(F)c(COc2ccc3c(c2)C[C@H]2[C@H](C(=O)O)[C@@H]32)c1` [Example 6, 4-{2-Fluoro-5-[6-(3-methanesulfonyl-propoxy)-2,4-dimethyl-pyridin-3-yl]-benzyloxy}-1,1a,6,6a-tetrahydro-cyclopropa[a]indene-1-carboxylic acid], the EC50 on Human GPR40 [1] is 57.4 nM; on Human GPR40 [2] it was 22.3 nM.

For the compound `Cc1cc(OCCCS(C)(=O)=O)nc(C)c1-c1cccc(COc2ccc3c(c2)C[C@H]2[C@H](C(=O)O)[C@@H]32)c1C` [Example 7, 4-{3-[6-(3-Methane-sulfonyl-propoxy)-2,4-dimethyl-pyridin-3-yl]-2-methyl-benzyloxy}-1,1a,6,6a-tetrahydro-cyclopropa[a]indene-1-carboxylic acid], the EC50 on Human GPR40 [1] amounted to 98 nM.

Take `Cc1cc(OCCCS(C)(=O)=O)ncc1-c1cccc(COc2ccc3c(c2)C[C@H]2[C@H](C(=O)O)[C@@H]32)c1C` [Example 8, 4-{3-[6-(3-Methanesulfonyl-propoxy)-4-methyl-pyridin-3-yl]-2-methyl-benzyloxy}-1,1a,6,6a-tetrahydro-cyclopropa[a]indene-1-carboxylic acid]: the EC50 on Human GPR40 [1] was 232 nM.

`Cc1cc(OC2CCS(=O)(=O)CC2)nc(C)c1-c1ccc(F)c(COc2ccc3c(c2)C[C@H]2[C@H](C(=O)O)[C@@H]32)c1` [Example 9, 4-{5-[6-(1,1-Dioxo-hexahydro-l16-thiopyran-4-yloxy)-2,4-dimethyl-pyridin-3-yl]-2-fluoro-benzyloxy}-1,1a,6,6a-tetrahydro-cyclopropa[a]indene-1-carboxylic acid]: the 50% effective concentration (EC50) at Human GPR40 [1] was 99 nM.

For `Cc1cc(OC2CCS(=O)(=O)CC2)ncc1-c1ccc(F)c(COc2ccc3c(c2)C[C@H]2[C@H](C(=O)O)[C@@H]32)c1` [Example 10, 4-{5-[6-(1,1-Dioxo-hexahydro-l16-thiopyran-4-yloxy)-4-methyl-pyridin-3-yl]-2-fluoro-benzyloxy}-1,1a,6,6a-tetrahydro-cyclopropa[a]indene-1-carboxylic acid], the EC50 at Human GPR40 [1] came out at 93.1 nM.

In the case of `Cc1nc(NCCCS(C)(=O)=O)ccc1-c1ccc(F)c(COc2ccc3c(c2)C[C@H]2[C@H](C(=O)O)[C@@H]32)c1` [Example 11, 4-{2-Fluoro-5-[6-(3-methanesulfonyl-propylamino)-2-methyl-pyridin-3-yl]-benzyloxy}-1,1a,6,6a-tetrahydro-cyclopropa[a]indene-1-carboxylic acid], the EC50 at Human GPR40 [1] is 55.9 nM; on Human GPR40 [2] it was 43.5 nM.

Take `Cc1nc(NCCCS(C)(=O)=O)ccc1-c1cccc(COc2ccc3c(c2)C[C@H]2[C@H](C(=O)O)[C@@H]32)c1` [Example 12, 4-{3-[6-(3-Methanesulfonyl-propylamino)-2-methyl-pyridin-3-yl]-benzyloxy}-1,1a,6,6a-tetrahydro-cyclopropa[a]indene-1-carboxylic acid]: the EC50 at Human GPR40 [1] amounted to 123 nM.

For the compound `Cc1cc(OC2CCS(=O)(=O)CC2)nc(C)c1-c1cccc(COc2ccc3c(c2)C[C@H]2[C@H](C(=O)O)[C@@H]32)c1` [Example 13, 4-{3-[6-(1,1-Dioxo-hexahydro-l16-thiopyran-4-yloxy)-2,4-dimethyl-pyridin-3-yl]-benzyloxy}-1,1a,6,6a-tetrahydro-cyclopropa[a]indene-1-carboxylic acid], the half-maximal effective concentration (EC50) on Human GPR40 [1] was 102 nM.

For `Cc1cc(NCCCS(C)(=O)=O)ncc1-c1cccc(COc2ccc3c(c2)C[C@H]2[C@H](C(=O)O)[C@@H]32)c1` [Example 15, 4-{3-[6-(3-Methanesulfonyl-propylamino)-4-methyl-pyridin-3-yl]-benzyloxy}-1,1a,6,6a-tetrahydro-cyclopropa[a]indene-1-carboxylic acid], the 50% effective concentration (EC50) at Human GPR40 [1] turned out to be 317 nM.

As for `Cc1cc(NCCCS(C)(=O)=O)ncc1-c1cccc(COc2ccc3c(c2)C[C@H]2[C@H](C(=O)O)[C@@H]32)c1C` [Example 16, 4-{3-[6-(3-Methanesulfonyl-propylamino)-4-methyl-pyridin-3-yl]-2-methyl-benzyloxy}-1,1a,6,6a-tetrahydro-cyclopropa[a]indene-1-carboxylic acid], the EC50 on Human GPR40 [1] turned out to be 4280 nM.

Take `Cc1nc(OC2CCS(=O)(=O)CC2)ccc1-c1cccc(COc2ccc3c(c2)C[C@H]2[C@H](C(=O)O)[C@@H]32)c1C` [Example 17, 4-{3-[6-(1,1-Dioxo-hexahydro-l16-thiopyran-4-yloxy)-2-methyl-pyridin-3-yl]-2-methyl-benzyloxy}-1,1a,6,6a-tetrahydro-cyclopropa[a]indene-1-carboxylic acid]: the concentration giving a half-maximal response (EC50) on Human GPR40 [1] was 252 nM.

As to `CS(=O)(=O)CCCOc1ccc(-c2cccc(COc3ccc4c(c3)C[C@H]3[C@H](C(=O)O)[C@@H]43)c2)c(CO)n1` [Example 18, 4-{3-[2-Hydroxymethyl-6-(3-methanesulfonyl-propoxy)-pyridin-3-yl]-benzyloxy}-1,1a,6,6a-tetrahydro-cyclopropa[a]indene-1-carboxylic acid], at Human GPR40 [1], the EC50 turned out to be 206 nM.

As for `Cc1cc(OCCCS(C)(=O)=O)ncc1-c1ccc(F)c(COc2ccc3c(c2)C[C@H]2[C@H](C(=O)O)[C@@H]32)c1` [Example 19, (1S,1aS,6aR)-4-[(2-fluoro-5-{4-methyl-6-[3-(methylsulfonyl)propoxy]pyridin-3-yl}benzyl)oxy]-1,1a,6,6a-tetrahydrocyclopropa[a]indene-1-carboxylic acid], at Human GPR40 [1], the EC50 was 5.5 nM.

On to `Cc1cc(OCCCS(C)(=O)=O)nc(C)c1-c1ccc(F)c(COc2ccc3c(c2)C[C@H]2[C@H](C(=O)O)[C@@H]32)c1F` [Example 21, 4-(2,6-difluoro-3-[6-(3-methanesulfonyl-propoxy)-2,4-dimethyl-pyridin-3-yl]-benzyloxy)-1,1a,6,6a-tetrahydro-cyclopropa[a]indene-1-carboxylic acid], for which, at Human GPR40 [1], the half-maximal effective concentration (EC50) stood at 47.4 nM.

Turning to `Cc1cc(OCCCS(C)(=O)=O)ncc1-c1ccc(F)c(COc2ccc3c(c2)C[C@H]2[C@H](C(=O)O)[C@@H]32)c1F` [Example 22, 4-(2,6-difluoro-3-[6-(3-methanesulfonyl-propoxy)-4-methyl-pyridin-3-yl]-benzyloxy)-1,1a,6,6a-tetrahydro-cyclopropa[a]indene-1-carboxylic acid], the EC50 on Human GPR40 [1] was 58.9 nM.
